Assay results reported in patent US10940139B2, “Compounds that interact with the Ras superfamily for the treatment of cancers, inflammatory diseases, rasopathies, and fibrotic disease” (Shy Therapeutics LLC, priority 2017, dated 2021).

What was measured:
[1] = biological target: KRas G12D/Q61H double mutant (Homo sapiens (Human), UniProt P01116, G12D/Q61H); assay: Ras GTP binding domain inhibition assay (labeled GTP); settings: at 20 μM; read-out: KRas G12D Q61H % Inh.
Procedure, shortened: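 Ni-plate capture of His-KRas (3-10 μg/ml, o/n, 4° C); Tris pH 7.5/MgCl2/DTT buffer, 1% DMSO. Cpd 20 μM or titration, 3 h RT. Cy3/Cy5-GTP 45 min RT, wash, fluorescence of bound GTP.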

[2] = biological target: Rac-1 (Homo sapiens (Human), UniProt P63000); assay: Rac inhibition assay (labeled GTP); type: binding; settings: read-out: Rac-1 % Inh.
[3] = biological target: Rho-A (Homo sapiens (Human), UniProt P61586); assay: Rho inhibition assay (labeled GTP); type: binding; settings: read-out: Rho-A % Inh.
[4] = biological target: KRas G12D mutant protein (Homo sapiens (Human), UniProt P01116, G12D); assay: Ras GTP binding domain inhibition assay (labeled GTP); settings: at 20 μM; read-out: KRas G12D % Inh.
Protocol: The following method was developed as specific assay for KRas G12D mutant protein.
Buffer-I: • 50 mM Tris, pH 7.5 • 150 mM NaCl (optional) • 1 mM MgCl2 • 1 mM DTT. • KRas G12D mutant protein was expressed as a His-tagged protein. Purified His-KRas G12D protein was diluted in buffer-I to a final concentration of 3-10 μg/ml. • 200 μl of the diluted His-KRas G12D protein was added to a nickel coated 96 well plate and incubated overnight at 4° C. • The next day, wells were washed 3× in 200 μl of Buffer-I. • Then 200 μl of Buffer-I were added to each well in the presence of 1% DMSO. • Tested compounds were added to the protein-coated wells at a concentration of 20 μM, and incubated for 3 hours at room temperature. While performing IC50 measurements a serial dilution of all tested concentrations was prepared.
Then 22 μl of Cy3-GTP or Cy5-GTP was added to each well. The labeled GTP was incubated for 45 min. at room temperature. • Following GTP incubation, wells were washed 3× in Buffer-I, and 200 μl of Buffer-I were added to each well. • Following washes, the amount of bound labeled-GTP was measured with an Eppendorf AF2200 plate reader.

Chain of KRas G12D mutant protein (P01116-2 other isoform, or with tags, fused parts or gaps G12D): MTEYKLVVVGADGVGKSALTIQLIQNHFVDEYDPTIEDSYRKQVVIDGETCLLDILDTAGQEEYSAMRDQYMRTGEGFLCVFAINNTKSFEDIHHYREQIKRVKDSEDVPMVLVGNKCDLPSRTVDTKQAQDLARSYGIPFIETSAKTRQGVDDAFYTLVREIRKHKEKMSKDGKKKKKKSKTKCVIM
Chain of Rho-A (P61586 whole entry, the tested form may be a part): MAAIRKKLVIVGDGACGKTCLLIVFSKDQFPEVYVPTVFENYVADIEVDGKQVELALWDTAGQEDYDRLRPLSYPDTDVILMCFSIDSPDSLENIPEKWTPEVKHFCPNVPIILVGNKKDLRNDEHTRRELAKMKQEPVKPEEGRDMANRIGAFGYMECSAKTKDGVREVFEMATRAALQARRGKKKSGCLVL
Chain of KRas G12D/Q61H double mutant (P01116-2 other isoform, or with tags, fused parts or gaps G12D/Q61H): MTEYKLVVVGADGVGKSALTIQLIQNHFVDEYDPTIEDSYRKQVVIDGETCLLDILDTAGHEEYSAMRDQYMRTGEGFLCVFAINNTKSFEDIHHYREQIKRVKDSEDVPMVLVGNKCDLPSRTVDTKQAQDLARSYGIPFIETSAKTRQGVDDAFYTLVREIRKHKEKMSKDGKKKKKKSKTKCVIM

| SMILES | inhibition at 20 µM [1] [%] | inhibition at 20 µM [2] [%] | inhibition at 20 µM [3] [%] | inhibition at 20 µM [4] [%] |
| --- | --- | --- | --- | --- |
| COc1ccnc(-c2nc(O)c3c(CN)csc3n2)c1 | 0 | 51 to 75 | 25 to 50 |  |
| Oc1nc(-c2ccccn2)nc2c(-c3ccccc3)csc12 [drawing 3625] | 25 to 50 | 51 to 75 | 51 to 75 |  |
| Cc1ccccc1N1CCN(C(=O)c2csc3c(O)nc(-c4ccccn4)nc23)CC1 [drawing 3628] | 25 to 50 | 76 to 100 | 76 to 100 |  |
| O=C(c1csc2c(O)nc(-c3ccccn3)nc12)N1CCN(Cc2cccc(O)c2)CC1 [drawing 3629] | 76 to 100 | 76 to 100 | 76 to 100 |  |
| O=C(c1csc2c(O)nc(-c3ccccn3)nc12)N1CCOC(c2cccc(F)c2)C1 (stereo not shown) [drawing 3630] | 25 to 50 | 25 to 50 | 1 to 25 |  |
| O=C(c1csc2c(O)nc(-c3ccccn3)nc12)N1CCOC(c2nccs2)C1 (stereo not shown) [drawing 3631] | 25 to 50 | 76 to 100 | 76 to 100 |  |
| COc1ccnc(-c2nc(O)c3c(Br)csc3n2)c1 [drawing 3632] | 25 to 50 | 25 to 50 | 25 to 50 |  |
| O=C(NCCc1cccnc1)c1csc2nc(-c3ccccn3)nc(N3CCOCC3)c12 [drawing 3633] | 1 to 25 | 51 to 75 | 51 to 75 |  |
| COc1ccc(CCNC(=O)c2csc3nc(-c4ccccn4)nc(N4CCOCC4)c23)cn1 [drawing 3634] | 25 to 50 | 51 to 75 | 51 to 75 |  |
| COc1ccc(CCN(C)C(=O)c2csc3nc(-c4ccccn4)nc(N4CCOCC4)c23)cn1 [drawing 3635] | 0 | 25 to 50 | 25 to 50 |  |
| COc1cc(CCNC(=O)c2csc3nc(-c4ccccn4)nc(N4CCOCC4)c23)ccn1 [drawing 3636] | 1 to 25 | 51 to 75 | 25 to 50 |  |
| COc1ncc(CCNC(=O)c2csc3nc(-c4ccccn4)nc(N4CCOCC4)c23)cn1 [drawing 3637] | 1 to 25 | 51 to 75 | 51 to 75 |  |
| O=C(NCCc1cncs1)c1csc2nc(-c3ccccn3)nc(N3CCOCC3)c12 [drawing 3638] | 1 to 25 | 51 to 75 | 25 to 50 |  |
| N#Cc1ccc(CCNC(=O)c2csc3nc(-c4ccccn4)nc(N4CCOCC4)c23)cc1 [drawing 3639] | 1 to 25 | 25 to 50 | 25 to 50 |  |
| CC(C)(C(=O)Nc1ccnc(-c2ccccn2)n1)c1ccc(C#N)cc1 [drawing 3640] | 1 to 25 | 51 to 75 | 25 to 50 |  |
| CC(C)(C(=O)Nc1nc(-c2ccccn2)nc2sccc12)c1ccc(C#N)cc1 [drawing 3641] | 0 | 76 to 100 | 51 to 75 |  |
| O=C(c1csc2c(O)nc(-c3ccccn3)nc12)N1CCN(c2cccc(F)c2)CC1 [drawing 3642] | 25 to 50 | 76 to 100 | 76 to 100 |  |
| O=C(c1csc2c(O)nc(-c3ccccn3)nc12)N1CCN(c2ccc(F)cc2)CC1 [drawing 3643] | 0 | 51 to 75 | 51 to 75 |  |
| N#Cc1cccc(N2CCN(C(=O)c3csc4c(O)nc(-c5ccccn5)nc34)CC2)c1 [drawing 3644] | 1 to 25 | 51 to 75 | 51 to 75 |  |
| N#Cc1ccc(N2CCN(C(=O)c3csc4c(O)nc(-c5ccccn5)nc34)CC2)cc1 [drawing 3645] | 0 | 51 to 75 | 51 to 75 |  |
| COc1cc(OC)cc(N2CCN(C(=O)c3csc4c(O)nc(-c5ccccn5)nc34)CC2)c1 [drawing 3646] | 0 | 25 to 50 | 25 to 50 |  |
| COc1cc(N2CCN(C(=O)c3csc4c(O)nc(-c5ccccn5)nc34)CC2)cc(OC)c1OC [drawing 3647] | 0 | 1 to 25 | 25 to 50 |  |
| COc1ccc(N2CCN(C(=O)c3csc4c(O)nc(-c5ccccn5)nc34)CC2)c(OC)c1 [drawing 3648] | 25 to 50 | 76 to 100 | 51 to 75 |  |

| SMILES | inhibition at 20 µM [1] [%] | inhibition at 20 µM [2] [%] | inhibition at 20 µM [3] [%] | inhibition at 20 µM [4] [%] |
| --- | --- | --- | --- | --- |
| O=C(c1csc2c(O)nc(-c3ccccn3)nc12)N1CCN(c2ccc(F)cc2F)CC1 [drawing 3649] | 51 to 75 | 76 to 100 | 51 to 75 |  |
| O=C(c1csc2c(O)nc(-c3ccccn3)nc12)N1CCN(Cc2ccccc2)CC1 [drawing 3651] | 25 to 50 | 51 to 75 | 76 to 100 |  |
| O=C(c1csc2c(O)nc(-c3ccccn3)nc12)N1CCN(Cc2ccc(O)cc2)CC1 [drawing 3653] | 1 to 25 | 51 to 75 | 25 to 50 |  |
| O=C(c1csc2c(O)nc(-c3ccccn3)nc12)N1CCN(Cc2ccc(O)c(Cl)c2)CC1 [drawing 3654] | 25 to 50 | 76 to 100 | 76 to 100 |  |
| O=C(c1csc2c(O)nc(-c3ccccn3)nc12)N1CCOC(c2ccccc2)C1 (stereo not shown) [drawing 3655] | 1 to 25 | 25 to 50 | 51 to 75 |  |
| COc1ccccc1C1CN(C(=O)c2csc3c(O)nc(-c4ccccn4)nc23)CCO1 (stereo not shown) [drawing 3656] | 51 to 75 | 76 to 100 | 76 to 100 |  |
| COc1ccc(C2CN(C(=O)c3csc4c(O)nc(-c5ccccn5)nc34)CCO2)cc1 (stereo not shown) [drawing 3657] | 25 to 50 | 25 to 50 | 25 to 50 |  |
| O=C(c1csc2c(O)nc(-c3ccccn3)nc12)N1CCOC(c2cccc(Cl)c2)C1 (stereo not shown) [drawing 3659] | 1 to 25 | 1 to 25 | 51 to 75 |  |
| O=C(c1csc2c(O)nc(-c3ccccn3)nc12)N1CCOC(Cc2ccccc2)C1 (stereo not shown) [drawing 3660] | 25 to 50 | 76 to 100 | 76 to 100 |  |
| COc1ccccc1C1CN(C(=O)c2csc3c(O)nc(-c4ccccn4)nc23)CCN1 (stereo not shown) [drawing 3661] | 25 to 50 | 1 to 25 | 76 to 100 |  |
| COc1ccc(C2CN(C(=O)c3csc4c(O)nc(-c5ccccn5)nc34)CCN2)cc1 (stereo not shown) [drawing 3663] | 1 to 25 | 76 to 100 | 76 to 100 |  |
| COCc1ccc(-c2csc3c(O)nc(-c4ccccn4)nc23)cc1F [drawing 3718] | 51 to 75 |  | 76 to 100 | 51 to 75 |
| O=C(c1csc2c(O)nc(-c3ccccn3)nc12)N1CCNC(c2cn[nH]c2)C1 (stereo not shown) [drawing 3730] | 51 to 75 |  | 76 to 100 | 25 to 50 |
| CC(C)COc1ccc(-c2csc3c(O)nc(-c4ccccn4)nc23)cn1 [drawing 3749] | 51 to 75 |  | 51 to 75 | 51 to 75 |
| COc1cc(-c2csc3c(O)nc(-c4ccccn4)nc23)cnc1C(F)(F)F [drawing 3756] | 51 to 75 | 51 to 75 |  | 51 to 75 |
| Oc1nc(-c2ccccn2)nc2c(-c3ccc4c(c3)CCCO4)csc12 [drawing 3774] | 25 to 50 | 25 to 50 |  | 51 to 75 |
| Oc1nc(-c2ccccn2)nc2c(-c3cc(C(F)(F)F)ccc3F)csc12 [drawing 3783] | 1 to 25 | 25 to 50 |  |  |
| Oc1nc(-c2ccccn2)nc2c(-c3cncc(C(F)(F)F)c3)csc12 [drawing 3784] | 1 to 25 |  | 25 to 50 |  |
| CCC(C)c1csc2c(OC)nc(-c3ccccn3)nc12 (stereo not shown) [drawing 3790] | 51 to 75 |  | 51 to 75 | 25 to 50 |
| Cc1c(C(=O)N2CCN(c3ccccc3)CC2)sc2c(O)nc(-c3ccccn3)nc12 [drawing 3802] | 51 to 75 | 51 to 75 |  |  |
| Cc1sc2c(O)nc(-c3ccccn3)nc2c1C(=O)N1CCN(Cc2cccc(O)c2)CC1 [drawing 3829] | 51 to 75 |  |  | 25 to 50 |
| Oc1nc(-c2ccccn2)nc2c(C3CC3)csc12 [drawing 3836] | 25 to 50 | 51 to 75 |  | 51 to 75 |
| COCCNc1nc(-c2nccn2C)nc2sc(-c3ccccc3)c(-c3ccccc3)c12 [drawing 3853] | 51 to 75 |  |  | 76 to 100 |
